This is an account of results in patent publication US20240415791A1, “Therapeutic methods and compositions for treating cancer using devimistat and a fatty acid oxidation inhibitor, a tyrosine kinase inhibitor, a glutaminase inhibitor, and/or a glycolysis inhibitor” (Cornerstone Pharmaceuticals, Inc., priority 2021, published 2024).

Holding throughout (assay type): cell-based, human
Assay [1] concerns AsPC1 cells. In words: Devimistat-induced cell death (ATP after recovery) in AsPC1 cells. The conditions noted are these: for sensitization to devimistat-induced cell death, agent combined with devimistat: AsPC1, nutrient-free CBS2, treatment followed by recovery in serum-free RPMI; for Devimistat synergy: devimistat-induced cell death, no exogenous carbon, 15 hours treatment then recovery. As to the method: Cells were plated at 80% confluency in complete RPMI in black, clear bottom 96-well plates or 35-mm dishes for ATP, protein and glycogen analysis, or glass coverslips for fluorescence visualization. […] Prior to drug treatment, cells were incubated in a nutrient-free carbonate buffered salt solution (CBS2) for 3 hours. Drug treatments were then carried out in CBS2 with addition of nutrient sources and/or chemical agents as described in the Examples and Figures.
LOGIC: High throughput, plate reader assays for cell death essentially always ultimately depend on metabolic activity of cells to identify viability, directly or indirectly. Thus, strong inhibition of metabolic activity by anti-metabolism agents like those described herein can confound cell death analysis by such assays. […] The inventors thus used a recovery-based assay wherein cells are treated with anti-metabolic agents under conditions where mitochondrial metabolism is (or becomes) limiting on viability. After experimental treatment, drug and media are removed and cells are allowed to recover in serum-free RPMI. RPMI provides high levels of glucose in support of glycolytic ATP generation (independently of mitochondrial function), allowing viable cells to recover ATP levels that are ultimately measured in the plate assay to score cell viability.
Survival is assessed by conventional luminescence measurement of ATP levels after this recovery.
TECHNICAL DETAILS: Immediately after drug treatments, acute ATP levels of cells in black, clear bottom 96-well plates were measured using the CellTiter-Glo® Luminescent Cell Viability Assay (catalog #G775B) following Promega (Madison, WI) protocols. […] After this recovery period ATP levels were measured using the CellTiter-Glo® Luminescent Cell Viability Assay as described above.
Survival is assessed by conventional luminescence measurement of ATP levels after this recovery. See the Methods section above for a detailed description of this assay and its validation.

Assay [2] has as its system AsPC1 cells. The assay is described as follows: Acute ATP synthesis rescue by exogenous carbon sources in AsPC1 cells treated with devimistat and GPi. The following applies: for inhibition of oleic acid (OA)-driven acute ATP synthesis / OA rescue: AsPC1, 50 μM GPi; for inhibition of oleic acid (OA)-driven acute ATP synthesis / OA rescue / OA rescue blockade: 60 μM devimistat, 50 μM oleic acid; for OA rescue blockade: acute ATP synthesis, 50 μM GPi.

Assay [3] relates to AsPC1 cells. In words: Glycogen content in AsPC1 cells. The conditions noted are these: AsPC1, CBS2, 3 hours. As to the method: Glycogen was quantified using the Glycogen Assay Kit II (colorimetric) from AbCam (ab169558) according to manufacturer's instructions. Briefly, approximately 2×10^6 cells were washed with ice-cold PBS and collected via scraping in 300 μL ice-cold ddH2O. Cells were immediately sonicated on ice for 5× […] pulses with a probe sonicator (Misonix Inc, model XL2000), then heated to 80° C. for 10 min. Samples were stored O/N at −20° C., then thawed, centrifuged at 12,000×g for 10 min and the supernatants collected for glycogen hydrolysis and quantification according to manufacturer's instructions.
C. […] Cells were treated in CBS2 for 3 hours with 30 μM devimistat or mock treated (FIG. 2C, left), or treated for 3 hours with the indicated devimistat doses (FIG. 2C, right).
D. Effects of anti-metabolism agents on glycogen consumption in PANC1 and AsPC1 cells. […] Glycogen content was measured in cell lysates (see Methods, above) and the results are presented in the left and middle graphs in FIG. 3D (note the different vertical scales for PANC1 and AsPC1 plots).

For the compound `[H]/N=C(/N)N/C(=N/[H])NCCc1ccccc1` [phenformin], in the assay with AsPC1 cells [1], the “sensitization to devimistat-induced cell death, agent combined with devimistat” value (shortened to “sensitization”) was “sensitizes AsPC1 to devimistat”.
For the compound `CSc1cccc(Nc2ncc3cc(-c4c(Cl)cccc4Cl)c(=O)n(C)c3n2)c1` [PD-173955], in the assay on AsPC1 cells [2], the “inhibition of oleic acid (OA)-driven acute ATP synthesis / OA rescue” value is on record as “little or no inhibition” and the OA rescue blockade entry is on record as “No”. Also, in the assay with AsPC1 cells [1], the “sensitization” value is “more limited sensitization” and the Devimistat synergy entry was “No”.
`Oc1c(Cl)cc(Cl)c(Cl)c1Cc1c(O)c(Cl)cc(Cl)c1Cl` [hexachlorophene]: the “blockade of glutamine rescue from devimistat inhibition of ATP synthesis” value in the assay with AsPC1 cells [2] is reported as “blockade”.
For `COc1cc2c(Oc3ccc(NC(=O)C4(C(=O)Nc5ccc(F)cc5)CC4)cc3F)ccnc2cc1OCCCN1CCOCC1` [Foretinib, N1′-[3-fluoro-4-[[6-methoxy-7-(3-morpholinopropoxy)-4-quinolyl]oxy]phenyl]-N1-(4-fluorophenyl)cyclopropane-1,1-dicarboxamide], in the assay on AsPC1 cells [2], the “inhibition of oleic acid (OA)-driven acute ATP synthesis / OA rescue” value was “robust inhibition” and the OA rescue blockade result is “Yes”. Further, in the assay on AsPC1 cells [1], the “sensitization” value is on record as “robustly sensitize” and the Devimistat synergy entry is on record as “Yes”.
Take `CNC(=O)c1c(F)cccc1Nc1nc(Nc2cc3c(cc2OC)CCN3C(=O)CN(C)C)nc2[nH]ccc12` [GSK1838705A]: in the assay with AsPC1 cells [2], the “inhibition of oleic acid (OA)-driven acute ATP synthesis / OA rescue” value is listed as “little or no inhibition” and the OA rescue blockade entry was “No”. Moreover, in the assay on AsPC1 cells [1], the “sensitization” value is on record as “more limited sensitization” and the Devimistat synergy entry is listed as “No”.
Take `CC[C@H]1/C=C/C=C/C[C@@H](C)[C@H](O)[C@@](C)(O)C(=O)[C@@H](C)[C@H](O)[C@@H](C)C(=O)[C@@H](C)[C@H](O)[C@@H](C)/C=C/C(=O)O[C@@H]2[C@H](C)[C@H](CC1)O[C@]1(CC[C@H](C)[C@H](C[C@@H](C)O)O1)[C@H]2C` [oligomycin]: in the assay with AsPC1 cells [3], the glycogen consumption entry was “induce accelerated glycogen depletion”.
As to `C=C(C)[C@H]1Cc2c(ccc3c2O[C@@H]2COc4cc(OC)c(OC)cc4[C@@H]2C3=O)O1` [rotenone], the glycogen consumption entry with AsPC1 cells [3] is listed as “induce accelerated glycogen depletion”.
